Kd data for one substance are collected here from publication PMC9136613 (Acta Pharmaceutica Sinica. B, 2022).

In the experiment the target is T1, CCT4 (Homo sapiens, UniProt P50991).
T1 sequence (P50991 2-539): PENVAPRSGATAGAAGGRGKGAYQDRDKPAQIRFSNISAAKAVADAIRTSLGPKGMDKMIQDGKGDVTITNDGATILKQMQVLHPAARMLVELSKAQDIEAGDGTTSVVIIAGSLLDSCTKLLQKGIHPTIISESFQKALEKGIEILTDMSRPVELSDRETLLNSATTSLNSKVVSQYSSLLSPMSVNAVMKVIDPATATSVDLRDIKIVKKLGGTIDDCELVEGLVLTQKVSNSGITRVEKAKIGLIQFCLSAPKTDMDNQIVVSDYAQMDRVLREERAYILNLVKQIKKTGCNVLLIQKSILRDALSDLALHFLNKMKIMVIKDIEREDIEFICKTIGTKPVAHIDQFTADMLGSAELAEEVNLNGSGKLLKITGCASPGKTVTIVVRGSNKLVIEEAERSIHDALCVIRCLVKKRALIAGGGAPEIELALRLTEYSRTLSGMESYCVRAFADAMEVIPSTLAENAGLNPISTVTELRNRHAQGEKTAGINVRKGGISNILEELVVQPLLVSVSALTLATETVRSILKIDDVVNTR
The experiment is described as follows: SPR on immobilized recombinant CCT4. The format is binding.

Consider anticarin-β, for which the dissociation constant Kd is approximately 2200 nM.

For orientation: Kd means the constant that tells how readily two partners part at equilibrium.
